Entries after “also recorded” stand apart in the source; their conditions may differ. Where two headings read alike, the source gives them in different places. Where no end group is shown, it is not given here.
Assays:
FN/CD9 interaction = test: ELISA modified for effects of metal salts on the FN/CD9 interaction; type: binding, human; settings: 0-4.5 mM metal salt
Description: The standard ELISA assay format was modified to evaluate the effects of divalent and monovalent metal salts on the FN/CD9 interaction. The ELISA buffers contained 0.5 mM EGTA and metal salt was excluded from antigen plating and primary wash step. Antigen was plated in Buffer D. The plates were washed once with Buffer E and then blocked with Blocking Buffer 2. Subsequent steps up to and including the second wash after the FN overlay were done in Buffer F, which contained 0-4.5 mM metal salt. After the FN overlay, plates were washed once with Buffer F (+/−metal salt), then twice with Buffer G. The subsequent incubations and washes were performed with Buffer G.

human coronary SMCs [1] = test: Verification that hydroxyurea prevents SMC proliferation (thymidine incorporation); type: cell-based; settings: 5 mM hydroxyurea
Description: (§1) Cell migration was measured via a monolayer-wounding assay, as described by Brown et al. (Circ Res. 84:655-667 (1999), which is hereby incorporated by reference in its entirety). Briefly, 100% confluent cells were treated with serum-free medium containing hydroxyurea (5 mM)(DMEM supplemented with 100 U/mL penicillin, 100 μg/mL streptomycin and 5 mM hydroxyurea) for 24 h before the start of experiments. Hydroxyurea was used to prevent cell proliferation and block the possible effect of CD9 on SMCs proliferation. The capacity of hydroxyurea to prevent proliferation was verified by showing that it inhibited thymidine incorporation by >99%. After incubation with hydroxyurea, cells were rinsed with DMEM (serum free), and a ≈1 mm wide scratch was made with a sterile 20 ul tip with the help of a ruler. After that, the cells were incubated in the DMEM medium. […] Plates were rinsed twice with PBS, and analyzed via computerized image analysis system (scion Image CMS-800). Cell migration was expressed as the distance migrated in the 24 hours (Chang et al., Circ. Res. 91(5):390-397 (2002), which is hereby incorporated by reference in its entirety). […]

FN [2] = test: ELISA for fibronectin binding to immobilized CD9, His6-rCD9 or peptide; design: species or system human; settings: for soluble FN binding to immobilized peptide compared to intact platelet purified CD9: FN 75 μg/ml
Description: (§2) All incubation periods for the CD9/FN binding ELISA lasted two hours at RT unless otherwise indicated. Immulon I (Dynatech) microtiter plate wells were coated with CD9 (2 μg/ml), His6-rCD9 (2 μg/ml), BSA (10 μg/ml), or peptide (10 μM) in Buffer A. After one wash with Buffer B, plates were blocked with Blocking Buffer 1.1% BSA was included in steps from ligand overlay to addition of mAb conjugate to minimize non-specific binding. Titrations of human plasma FN in Buffer B were added to plates either alone, or in the case of competition ELISAs, with 0-160 μM synthetic peptide. Plates were washed three times with ELISA Buffer B, followed by incubation with a 1/1000 dilution of rabbit anti-FN antibody. After two washes with Buffer B and one wash with Buffer C, plates were incubated with 1/500 antirabbit IgG alkaline phosphatase in Buffer C for one hour at RT. After four washes with Buffer C, 1 mg/mlp-nitrophenyl phosphate substrate was added and the absorbance at 405 nm was recorded.

FN [3] = biological target: FN (Homo sapiens, UniProt P02751); test: Surface plasmon resonance biosensor analysis of FN captured by anti-FN mAbs; type: binding
CHO A6 cells = test: Basic adhesion assay of CHO A6 cells on FN; type: cell-based; settings: 0.5 μM peptide, 3 hours
Description: 24-well culture plate wells were coated with human plasma FN (10 μg/mL FN in PBS for 3 hours at 37° C.) and blocked with PBS, 3% bovine serum albumin (BSA) for 1 hour at 37° C. Mock- and CD9-CHO cells were harvested as described previously. After a 30-minute rest period at 37° C., 10^5 cells/well were seeded in FN-coated 24-well plates and incubated for 3 hours at 37° C. For some experiments, cells were incubated in the presence of 0.5 μM of peptides corresponding to amino acid sequences of CD9 EC2. Wells were washed 4 times with adhesion media, stained with modified Wright Giemsa, and adherent cells were counted in five randomly selected high-power fields of view per well using an inverted phase contrast microscope, Olympus IMT-2 (Olympus, Lake Success, N.Y.). All assays were run in triplicate, and the cell counts were reported as the number of adherent cells/mm^2 of well surface area. The mean number of adherent cells/mm^2±SE of 3 independent assays were reported (n=45).

[4] = tested on: mAb7 binding to CD9 expressed on CHO A6 cells; test: Flow cytometry: peptide blocking of mAb7 binding to CD9 on CHO A6 cells; design: species or system human; settings: 100 μg peptide with 1 μg mAb7
Description: 100 μg of peptide 5a, 5, 5b, or 6a was incubated with 1 μg mAb7 for 30 minutes at room temperature. CD9 CHO cells (clone A6) were harvested, washed twice with PBS, and resuspended in labeling media (2.5×10^5 cells/mL); 4 μL mAb7-peptide solution was added to 2.5×10^5 cells and incubated for 1 hour at 4° C. MOPC2, and mAb7 alone were used as negative and positive controls, respectively. Cells were washed with PBS, resuspended in labeling media, and bound mAb7 was detected with a species-specific FITC-conjugated second antibody, followed by flow cytometry as described above.

CD9-CHO cells = type: cell-based; settings: FN coated inserts blocked with peptide (0.5 μM)
Description: The motility assays were performed using two methodologies. The first method was modified from Bauer et al. (J. Cell. Biol. 116:477-487 (1992), which is hereby incorporated by reference in its entirety). Cell cycle synchronized CHO cells were seeded into tissue culture plates, grown to approximately 50% confluency, and harvested. The cells were washed twice with Media A, adjusted to 4×10^5/ml, allowed to rest at 37° C. for 30 min in Media B, then transferred into modified Boyden chambers. The upper and lower chambers were separated by a polycarbonate filter, with 8 μm pores, pre-coated on the underside only with 10 μg/ml FN. After 3 or 6 hours, cells on the FN-coated side of the filters were fixed, stained with hematoxylin, and mounted onto slides. The total numbers of adherent cells from five high-powered fields (HPF) per filter were counted per time point per assay. The second method for assessing the motility of CD9-transfected CHO cells utilized 10 mm polycarbonate tissue culture inserts with 8 μm pores (Nunc, Rochester, N.Y.). Tissue culture inserts were coated on the underside with FN as described above for Boyden Chambers. […] CHO cells adhered to the FN-coated underside of tissue culture inserts were stained with Wrights Giemsa and the number of adherent cells in five random high power fields were counted per time point per assay. […]

CD9-CHO-B2 cells = test: Adhesion of CD9-CHO-B2 cells (lacking integrin α5β1) to FN, peptide inhibition; type: cell-based; settings: peptide 0.5 μM
Description: CHO cell adhesion assays were done as described by Cook et al. (Exp. Cell. Res. 251:356-371 (1999), which is hereby incorporated by reference in its entirety). Briefly, 24-well cell culture plates (Coming, Acton, Mass.) were coated with FN (10 μg/ml) and blocked with PBS, 3% BSA. CHO cells were cell synchronized, harvested, and resuspended at 1×10^5 cell/ml in adhesion media (RPMI, 1% BSA). For peptide inhibition studies, peptides were added to CHO cell suspension to give a final concentration of 0.5 μM and cells were incubated at 37° C. for 30 minutes. 1 ml CHO cell suspension was added to each well and CHO cells were allowed to adhere for either 3 or 6 hours, then adherent cells were stained with Wright Giemsa and counted.

human coronary SMCs [5] = test: SMC migration, monolayer-wounding assay; type: cell-based; settings: 2% serum, 24 h
Description: as §1

FN-CD9 binding = test: Competition ELISA: effect of peptides on FN binding to immobilized CD9; design: species or system human
Description: as §2

[6] = FN concentration, 2.5 mM Ca2+, read-out: half maximal binding with FN

Chain of FN (Homo sapiens, UniProt P02751) (P02751 32-2477): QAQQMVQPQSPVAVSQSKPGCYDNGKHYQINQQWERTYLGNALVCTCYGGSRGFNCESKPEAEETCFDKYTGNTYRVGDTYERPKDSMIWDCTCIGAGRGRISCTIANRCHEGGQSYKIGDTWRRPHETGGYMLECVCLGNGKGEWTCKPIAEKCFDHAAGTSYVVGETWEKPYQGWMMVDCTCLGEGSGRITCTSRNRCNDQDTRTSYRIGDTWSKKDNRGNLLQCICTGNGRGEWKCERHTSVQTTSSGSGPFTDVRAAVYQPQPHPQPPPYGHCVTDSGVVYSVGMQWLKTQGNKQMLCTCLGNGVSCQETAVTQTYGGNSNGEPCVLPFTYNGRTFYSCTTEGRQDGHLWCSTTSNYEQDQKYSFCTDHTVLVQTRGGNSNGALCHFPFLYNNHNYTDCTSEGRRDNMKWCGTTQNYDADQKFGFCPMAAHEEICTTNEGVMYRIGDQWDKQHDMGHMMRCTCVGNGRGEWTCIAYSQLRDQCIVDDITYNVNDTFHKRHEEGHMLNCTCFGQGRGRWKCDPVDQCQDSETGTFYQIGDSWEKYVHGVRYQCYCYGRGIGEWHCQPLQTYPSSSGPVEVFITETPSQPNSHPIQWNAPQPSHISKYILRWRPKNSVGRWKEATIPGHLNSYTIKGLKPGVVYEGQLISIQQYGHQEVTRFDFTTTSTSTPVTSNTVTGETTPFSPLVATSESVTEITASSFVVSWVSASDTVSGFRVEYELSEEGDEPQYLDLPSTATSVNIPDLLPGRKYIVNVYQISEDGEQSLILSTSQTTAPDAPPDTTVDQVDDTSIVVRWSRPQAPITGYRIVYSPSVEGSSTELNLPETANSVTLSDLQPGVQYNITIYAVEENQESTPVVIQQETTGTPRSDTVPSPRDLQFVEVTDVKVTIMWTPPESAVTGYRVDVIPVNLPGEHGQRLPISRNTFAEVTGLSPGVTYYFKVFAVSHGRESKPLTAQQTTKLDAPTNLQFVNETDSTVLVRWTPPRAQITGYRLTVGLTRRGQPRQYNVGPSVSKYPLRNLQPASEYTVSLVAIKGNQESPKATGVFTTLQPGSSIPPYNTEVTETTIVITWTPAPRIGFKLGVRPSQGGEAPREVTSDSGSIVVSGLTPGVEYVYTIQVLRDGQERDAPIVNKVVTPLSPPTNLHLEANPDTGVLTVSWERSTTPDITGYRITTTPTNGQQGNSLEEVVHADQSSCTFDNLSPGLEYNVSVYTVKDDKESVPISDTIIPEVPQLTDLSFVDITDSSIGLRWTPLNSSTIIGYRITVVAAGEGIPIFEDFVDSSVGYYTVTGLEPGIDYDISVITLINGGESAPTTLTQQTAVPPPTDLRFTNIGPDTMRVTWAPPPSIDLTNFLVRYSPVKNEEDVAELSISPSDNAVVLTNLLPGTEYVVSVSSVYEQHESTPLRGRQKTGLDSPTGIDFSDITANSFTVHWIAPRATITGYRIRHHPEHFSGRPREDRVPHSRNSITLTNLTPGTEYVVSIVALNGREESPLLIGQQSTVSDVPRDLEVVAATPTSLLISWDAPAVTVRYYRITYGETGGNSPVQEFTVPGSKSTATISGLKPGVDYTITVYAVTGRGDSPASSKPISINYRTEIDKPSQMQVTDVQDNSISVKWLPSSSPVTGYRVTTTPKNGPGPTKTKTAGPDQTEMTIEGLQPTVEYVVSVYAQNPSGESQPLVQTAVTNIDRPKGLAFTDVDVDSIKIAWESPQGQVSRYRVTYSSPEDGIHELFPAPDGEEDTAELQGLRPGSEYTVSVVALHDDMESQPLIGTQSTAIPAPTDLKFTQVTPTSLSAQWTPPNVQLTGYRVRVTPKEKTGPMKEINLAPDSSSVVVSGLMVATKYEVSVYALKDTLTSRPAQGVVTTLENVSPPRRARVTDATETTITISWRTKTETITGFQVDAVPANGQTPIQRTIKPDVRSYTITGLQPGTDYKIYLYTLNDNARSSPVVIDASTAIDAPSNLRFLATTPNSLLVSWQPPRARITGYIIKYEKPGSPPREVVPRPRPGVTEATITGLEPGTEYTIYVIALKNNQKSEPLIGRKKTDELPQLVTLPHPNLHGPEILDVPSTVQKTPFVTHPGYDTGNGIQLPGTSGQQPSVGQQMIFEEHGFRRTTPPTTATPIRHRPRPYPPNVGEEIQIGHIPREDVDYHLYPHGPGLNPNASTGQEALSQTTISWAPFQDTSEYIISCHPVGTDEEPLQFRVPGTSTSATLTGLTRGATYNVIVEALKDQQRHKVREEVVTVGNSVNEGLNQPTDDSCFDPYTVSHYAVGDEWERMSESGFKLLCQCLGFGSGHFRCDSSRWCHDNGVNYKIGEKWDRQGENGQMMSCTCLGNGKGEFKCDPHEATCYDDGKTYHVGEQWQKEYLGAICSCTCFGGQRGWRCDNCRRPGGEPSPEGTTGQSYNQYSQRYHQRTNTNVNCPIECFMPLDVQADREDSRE

Molecule: [Ca+2].[Cl-].[Cl-] [CaCl2]
- effect of cation on CD9/FN interaction (FN/CD9 interaction): stimulated

Molecule: NC(=O)NO [hydroxyurea]
- inhibition at 5000 µM (human coronary SMCs [1]): > 99%

Molecule: CD9: purified platelet CD9, 24 kDa integral membrane glycoprotein (SEQ ID NO: 1)
- half-maximal binding of soluble FN to immobilized CD9 (FN [2]; 2.5 mM CaCl2, FN concentration): 35.6 µg/mL
- EC50 (FN [2]; 2.5 mM CaCl2, FN concentration, read-out: half-maximal binding of soluble FN to immobilized CD9): 81 nM
- EC50 (FN [2]; [6]): 81 nM
- Kd (FN [2]; platelet-derived or recombinant CD9, read-out: affinity of FN-CD9 interaction): 80 nM
- association between captured FN and purified CD9 (FN [3]): specific association

Molecule: His6-rCD9: bacterially expressed histidine tagged recombinant CD9
- EC50 (FN [2]; [6]): 120 nM
- binding to FN lower than for purified CD9 (absolute ELISA values) (FN [2]; versus purified platelet CD9): 40%

Molecule: KDEPQRETLKAIHYALNCCGLAGGVEQFISDICPKKDV [peptide 5b]
- effect on adhesive phenotype of CHO A6 cells on FN (CHO A6 cells): equivalent to that of CHO MOCK cells; also recorded: reversed the adhesive phenotype; also recorded: reversed the inhibitory influence of CD9
- blocking of mAb7 binding to cell surface CD9 [4]: blocked mAb7 binding to soluble CD9 and to CD9 on intact cells

Molecule: KEFDFKAPSVCKVEDIDTKTL [peptide 6S, reference compound]
- effect on CD9-mediated CHO cell motility to FN (CD9-CHO cells): lack of inhibition
- effect on CD9-CHO-B2 cell adhesion to FN (CD9-CHO-B2 cells): no significant effect

Molecule: PKKDVLETFTVKSCPDAI [peptide 6a]
- effect on adhesive phenotype of CHO A6 cells on FN (CHO A6 cells): equivalent to that of CHO MOCK cells; also recorded: reversed the inhibitory influence of CD9
- blocking of mAb7 binding to cell surface CD9 [4]: blocked mAb7 binding

Molecule: PKKDVLETFTVKSCPDAIKEVFDNK [peptide 6]
- effect on SMC migration (human coronary SMCs [5]): dose dependent inhibitory effect
- maximal inhibitory effect on serum-induced migration (human coronary SMCs [5]; at 40 μM): ~65%
- effect on adhesive phenotype of CHO A6 cells on FN (CHO A6 cells): reversed the adhesive phenotype
- blocking of mAb7 binding to cell surface CD9 [4]: blocked mAb7 binding to soluble CD9 and to CD9 on intact cells
- inhibition of FN binding to CD9 (FN-CD9 binding; peptide 0-160 μM): significantly inhibited; also recorded: competitively inhibited binding of FN to purified CD9 in a dose-dependent fashion; also recorded: partially inhibited
- peptide concentration at maximal inhibition of FN binding to CD9 (FN-CD9 binding; titration 0-160 μM): 60 µM
- direct binding of FN (FN [2]): binds directly
- soluble FN binding to immobilized peptide compared to intact platelet purified CD9 (FN [2]): 65%
- effect on CD9-mediated CHO cell motility to FN (CD9-CHO cells): competitively inhibited
- effect on CD9-CHO-B2 cell adhesion to FN (CD9-CHO-B2 cells): able to block
- effect on CD9-CHO-B2 cell adhesion to FN (CD9-CHO-B2 cells; listed as Peptide 6): inhibited the adhesion level of CD9-CHO-B2 cells on FN to that seen with Mock-CHO-B2 cells

Molecule: YKDTYNKLKTKDEPQRETLKAI [peptide 5]
- effect on adhesive phenotype of CHO A6 cells on FN (CHO A6 cells): no effect
- blocking of mAb7 binding to cell surface CD9 [4]: neither peptide 5a nor 5 blocked
- soluble FN binding to immobilized peptide compared to intact platelet purified CD9 (FN [2]): 19%

Molecule: YSHKDEVIKEVQEFYKDTYNKLKT [peptide 5a]
- blocking of mAb7 binding to cell surface CD9 [4]: neither peptide 5a nor 5 blocked

Reference: patent US20040136985A1, “Methods of modifying behavior of CD9-expressing cells” (priority 2002, published 2004)
